Measured values taken from patent publication US9321722B2, “Bis-indolic derivatives, their uses in particular as antibacterials” (UNIVERSITE JOSEPH FOURIER, priority 2011, dated 2016).
≈ marks a conversion by molar mass, not a printed value.

What was measured:
S. mitis CIP 103335 = test: MIC microdilution (Table I-1); format: cell-based; settings: Streptococcus mitis, CIP103335, read after 18 hours, read-out: MIC
Description: (§1) The microdilution method recommended by the Clinical and Laboratory Standard Institute [M07-A8, Vol. 29, N^o 2] was used. The activity of indolic compounds was tested against 29 bacterial strains belonging to 17 different species and 12 different genera (Staphylococcus, Streptococcus, Enterococcus, Listeria, Bacillus, Haemophilus, Escherichia, Klebsiella, Enterobacter, Serratia, Pseudomonas, and Acinetobacter). Bacterial inocula were prepared in Mueller Hinton broth (MH2, bioMerieux, Marcy L'Etoile, France), supplemented with 10% sheep blood for fastidious species (i.e., Streptococcus pneumoniae and Haemophilus influenzae). They were dispensed in 96 well microtiter plates (5×10^5 CFU/ml of final inoculum). Indolic compounds were added to the wells as to obtain two-fold serial concentrations (0.50-128 mg/L of final concentrations). Plates were incubated at 37° C. in ambient air, or at 37° C. in 5% CO2 enriched atmosphere for fastidious species. […] Drug-free cultures served as growth controls. Cultures receiving gentamicin, ciprofloxacin or cefotaxime served as positive controls.

[1] = tested on: S. pyogenes (group A) CIP 104226; test: MIC microdilution (Table I-1); format: cell-based; settings: Streptococcus pyogenes, CIP104226, read after 18 hours, read-out: MIC
Description: as §1

[2] = tested on: Haemophilus influenzae ATCC 49766; test: MIC microdilution (Table I-1); format: cell-based; settings: ATCC49766; Haemophilus influenzae ATCC 49766; read after 18 hours; read-out: MIC
Description: as §1

[3] = tested on: Klebsiella pneumoniae ATCC 35657; test: MIC microdilution (Table I-1); format: cell-based; settings: ATCC35657, read after 18 hours, read-out: MIC
Description: as §1

E. faecalis ATCC 29212 = test: MIC microdilution (Table I-1); format: cell-based; settings: Enterococcus faecalis, ATCC29212, read after 18 hours, read-out: MIC
Description: as §1

[4] = tested on: Acinetobacter baumanii ATCC 19606; test: MIC microdilution (Table I-1); format: cell-based; settings: Acinetobacter baumannii, ATCC19606, read after 18 hours
Description: as §1

[5] = tested on: Bacillus subtilis CIP 5262; test: MIC microdilution (Table I-1); format: cell-based; settings: CIP5262, read after 18 hours, read-out: MIC
Description: as §1

[6] = tested on: Serratia marcescens CIP 103551; test: MIC microdilution (Table I-1); format: cell-based; settings: CIP103551, read after 18 hours
Description: as §1

E. faecium CIP 54.32 = test: MIC microdilution (Table I-1); format: cell-based; settings: Enterococcus faecium, CIP54, read after 18 hours, read-out: MIC
Description: as §1

[7] = tested on: Enterobacter cloacae ATCC 13047; test: MIC microdilution (Table I-1); format: cell-based; settings: ATCC13047, read after 18 hours
Description: as §1

[8] = tested on: Escherichia coli ATCC 25922; test: MIC microdilution (Table I-1); format: cell-based; settings: ATCC25922, read after 18 hours
Description: as §1

[9] = tested on: S. agalactiae (group B) ATCC 12400; test: MIC microdilution (Table I-1); format: cell-based; settings: Streptococcus agalactiae, ATCC12400, read after 18 hours, read-out: MIC
Description: as §1

[10] = tested on: Pseudomonas aeruginosa CIP 5933; test: MIC microdilution (Table I-1); format: cell-based; settings: CIP5933, read after 18 hours
Description: as §1

S. aureus ATCC 25923 = test: MIC microdilution (Table I-1); format: cell-based; settings: Staphylococcus aureus, ATCC25923, read after 18 hours
Description: as §1

S. pneumoniae ATCC 49619 = test: MIC microdilution (Table I-1); format: cell-based; settings: Streptococcus pneumoniae, ATCC49619, read after 18 hours
Description: as §1

[11] = tested on: Listeria innocua CIP 80.11; test: MIC microdilution (Table I-1); format: cell-based; settings: CIP80, read after 18 hours, read-out: MIC
Description: as §1

[12] = tested on: S. aureus CIP 65.25 (MRSA); test: MIC microdilution (Table I-1); format: cell-based, Staphylococcus aureus; settings: Staphylococcus aureus, read after 18 hours, read-out: MIC
Description: as §1

S. aureus ATCC 29213 = test: MIC microdilution (Table I-1); format: cell-based, Staphylococcus aureus; settings: Staphylococcus aureus, ATCC29213, read after 18 hours, read-out: MIC
Description: as §1

[13] = tested on: S. aureus ATCC 33592 (MRSA); test: MIC microdilution (Table I-1); format: cell-based, Staphylococcus aureus; settings: Staphylococcus aureus, read after 18 hours, read-out: MIC
Description: as §1

[14] = tested on: S. aureus ATCC 106414 (VISA); test: MIC microdilution (Table I-1); format: cell-based, Staphylococcus aureus; settings: Staphylococcus aureus, read after 18 hours, read-out: MIC
Description: as §1

S. aureus CIP 65.6 = test: MIC microdilution (Table I-1); format: cell-based, Staphylococcus aureus; settings: Staphylococcus aureus, CIP65, read after 18 hours, read-out: MIC
Description: as §1

S. aureus ATCC 9144 = test: MIC microdilution (Table I-1); format: cell-based, Staphylococcus aureus; settings: Staphylococcus aureus, ATCC9144, read after 18 hours, read-out: MIC
Description: as §1

S. aureus CIP 103428 = test: MIC microdilution (Table I-1); format: cell-based, Staphylococcus aureus; settings: Staphylococcus aureus, CIP103428, read after 18 hours, read-out: MIC
Description: as §1

S. aureus SA-1199B = test: MIC microdilution (Table I-1); format: cell-based, Staphylococcus aureus; settings: Staphylococcus aureus, SA1199B, 18 h
Description: as §1

S. aureus ATCC 6538 = test: MIC microdilution (Table I-1); format: cell-based, Staphylococcus aureus; settings: Staphylococcus aureus, ATCC6538, read after 18 hours, read-out: MIC
Description: as §1

S. pneumoniae ATCC 6303 = test: MIC microdilution (Table I-1); format: cell-based, Streptococcus pneumoniae; settings: Streptococcus pneumoniae, ATCC6303, read after 18 hours, read-out: MIC
Description: as §1

S. epidermidis CIP 81.55 = test: MIC microdilution (Table I-1); format: cell-based, Staphylococcus epidermidis; settings: Staphylococcus epidermidis, CIP81, read after 18 hours, read-out: MIC
Description: as §1

[15] = tested on: S. epidermidis CIP 103627; test: MIC microdilution (Table I-1); format: cell-based, Staphylococcus epidermidis; settings: Staphylococcus epidermidis, CIP103627, read after 18 hours, read-out: MIC
Description: as §1

[16] = tested on: S. epidermidis ATCC 12228; test: MIC microdilution (Table I-1); format: cell-based, Staphylococcus epidermidis; settings: Staphylococcus epidermidis, ATCC12228, read after 18 hours, read-out: MIC
Description: as §1

[17] = tested on: KB (human mouth carcinoma); test: In vitro cytotoxicity; format: cell-based; settings: KB; for inhibition at 10 µM: 10^−5 M, read-out: % of cellular growth inhibition; for inhibition at 1 µM: 10^−6 M, read-out: % of cellular growth inhibition (converted)
Description: (§2) In vitro cytotoxicity was assayed on three cell lines—KB (human mouth carcinoma), MCR5 (human lung fibroblast) and HCT116 (human colon tumor). Results are presented in table III as % of cellular growth inhibition in presence of 10^−5 M and 10^−6 M of the tested bis-indolic derivatives.

[18] = tested on: MRC5 (human lung fibroblast); test: In vitro cytotoxicity; format: cell-based; settings: for inhibition at 10 µM: MRC5, 10^−5 M, read-out: % of cellular growth inhibition; for inhibition at 1 µM: MRC5, 10^−6 M, read-out: % of cellular growth inhibition (converted)
Description: as §2

[19] = tested on: HCT116 (human colon tumor); test: In vitro cytotoxicity; format: cell-based; settings: for inhibition at 10 µM: HCT-116, HCT116, 10^−5 M, read-out: % of cellular growth inhibition; for inhibition at 1 µM: HCT-116, HCT116, 10^−6 M, read-out: % of cellular growth inhibition (converted)
Description: as §2

Compound: CC(C)(C)OC(=O)NCC(NC(=O)C(=O)c1c[nH]c2cc(Br)ccc12)c1c[nH]c2ccccc12 (centres unmarked) [Compound 3, tert-Butyl(2-(2-(6-bromo-1H-indol-3-yl)-2-oxoacetamido)-2-(1H-indol-3-yl)ethyl) carbamate]
- MIC (S. mitis CIP 103335): > 128 µg/mL
- MIC [1]: 128 µg/mL (≈ 244 µM)
- MIC [2]: 32 µg/mL (≈ 60.9 µM)
- MIC [3]: > 128 µg/mL
- MIC (E. faecalis ATCC 29212): > 128 µg/mL
- MIC [4]: > 128 µg/mL
- MIC [5]: 128 µg/mL (≈ 244 µM)
- MIC [6]: > 128 µg/mL
- MIC (E. faecium CIP 54.32): 32 µg/mL (≈ 60.9 µM)
- MIC [7]: > 128 µg/mL
- MIC [8]: > 128 µg/mL
- MIC [9]: 64 µg/mL (≈ 122 µM)
- MIC [10]: > 128 µg/mL
- MIC (S. aureus ATCC 25923): 4 µg/mL (≈ 7.61 µM)
- MIC (S. pneumoniae ATCC 49619): > 128 µg/mL
- MIC [11]: > 128 µg/mL
- MIC [12]: 4 µg/mL (≈ 7.61 µM)
- MIC (S. aureus ATCC 29213): 2 µg/mL (≈ 3.81 µM)
- MIC [13]: 4 µg/mL (≈ 7.61 µM)
- MIC [14]: 4 µg/mL (≈ 7.61 µM)
- MIC (S. aureus CIP 65.6): 4 µg/mL (≈ 7.61 µM)
- MIC (S. aureus ATCC 9144): 4 µg/mL (≈ 7.61 µM)
- MIC (S. aureus CIP 103428): 4 µg/mL (≈ 7.61 µM)
- MIC (S. aureus SA-1199B): 4 µg/mL (≈ 7.61 µM)
- MIC (S. aureus ATCC 6538): 4 µg/mL (≈ 7.61 µM)
- MIC (S. pneumoniae ATCC 6303): 64 µg/mL (≈ 122 µM)
- MIC (S. epidermidis CIP 81.55): 8 µg/mL (≈ 15.2 µM)
- MIC [15]: > 16 µg/mL
- MIC [16]: 4 µg/mL (≈ 7.61 µM)
- inhibition at 10 µM [17]: 100 ± 1%
- inhibition at 1 µM [17]: 4%
- inhibition at 10 µM [18]: 98 ± 1%
- inhibition at 1 µM [18]: 0%
- inhibition at 10 µM [19]: 97 ± 1%
- inhibition at 1 µM [19]: 0%

Compound: O=C(C(=O)N1CCOCC1c1c[nH]c2ccc(Br)cc12)c1c[nH]c2ccc(Br)cc12 (centres unmarked) [Compound 6e, 1-(5-Bromo-1H-indol-3-yl)-2-(3-(5-bromo-1H-indol-3-yl)morpholino)ethane-1,2-dione]
- inhibition at 10 µM [17]: 29 ± 6%
- inhibition at 1 µM [17]: 0%
- inhibition at 10 µM [18]: 0%
- inhibition at 1 µM [18]: 0%
- inhibition at 10 µM [19]: 24 ± 6%
- inhibition at 1 µM [19]: 3%
